According to PubChem BioAssay (NCI):
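Five concentrations, 48 hours, 96-well plates. The concentration for full growth arrest is given as TGI.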

Assays:
Test in all cases: inhibition of tumour cell growth, NCI panel, 48 h
ACHN renal = test system: ACHN renal
DLD-1 colon = test system: DLD-1 colon
DMS 114 small cell lung = test system: DMS 114 small cell lung
DMS 273 small cell lung = test system: DMS 273 small cell lung
HOP-18 NSCLC = test system: HOP-18 NSCLC
KM20L2 colon = test system: KM20L2 colon
LXFL 529 NSCLC = test system: LXFL 529 NSCLC
M19-MEL melanoma = test system: M19-MEL melanoma
MOLT-4 leukemia = test system: MOLT-4 leukemia
NCI-H460 lung = test system: NCI-H460 lung
SK-OV-3 ovarian = test system: SK-OV-3 ovarian
SNB-75 CNS = test system: SNB-75 CNS
SNB-78 CNS = test system: SNB-78 CNS
SR leukemia = test system: SR leukemia

Question: For `c1ccc(C2OCCO2)c(OCCOc2cc(OCCOc3ccccc3C3OCCO3)c(OCCOc3ccccc3C3OCCO3)cc2OCCOc2ccccc2C2OCCO2)c1`, which TGI (ACHN renal) is on record?
Answer: Its TGI is greater than 100 µM.

Question: And the TGI (DLD-1 colon)?
Answer: The TGI was greater than 100 µM.

Question: And the TGI (DMS 114 small cell lung)?
Answer: The TGI was 29.9 µM.

Question: And the TGI (DMS 273 small cell lung)?
Answer: Its TGI is 50.9 µM.

Question: What about the TGI (HOP-18 NSCLC) of the same compound?
Answer: The TGI was greater than 100 µM.

Question: And the TGI (KM20L2 colon)?
Answer: Its TGI is greater than 100 µM.

Question: What about the TGI (LXFL 529 NSCLC) of the same compound?
Answer: The TGI was greater than 100 µM.

Question: What about the TGI (M19-MEL melanoma) of the same compound?
Answer: Its TGI is greater than 100 µM.

Question: What about the TGI (MOLT-4 leukemia) of the same compound?
Answer: Its TGI is greater than 100 µM.

Question: And the TGI (NCI-H460 lung)?
Answer: Its TGI is greater than 100 µM.

Question: What about the TGI (SK-OV-3 ovarian) of the same compound?
Answer: Its TGI is 13.7 µM.

Question: What about the TGI (SNB-75 CNS) of the same compound?
Answer: Its TGI is 7.06 µM.

Question: What about the TGI (SNB-78 CNS) of the same compound?
Answer: Its TGI is 28 µM.

Question: And the TGI (SR leukemia)?
Answer: The TGI was greater than 100 µM.
